This is an account of results in patent publication US9701709B2 (REATA PHARMACEUTICALS, INC., priority 2012, dated 2017).

Series [1] relates to rat GSTA2 ARE (Nrf2) in AREc32 reporter cell line. The series can be described thus: GSTA2-ARE luciferase reporter in AREc32. The note with it: 15.6 nM, 18 h. (In general: A reporter such as luciferase makes a cellular process visible.)
Series [2] has as its system lactate in C2Cl2 muscle cells. The series can be described thus: Lactate levels in C2Cl2 myotubes. It is filed as cell-based, rodent. The note with it: differentiated C2Cl2 myotubes; 1 μM or 2 μM, 3 h. The method, then: Buffer was removed and saved for measurement of extracellular lactate levels. Cell debris was pelleted by centrifugation (10 min at 14,000 rpm) prior to measurement of lactate. To measure intracellular lactate, cells were suspended in 0.1% Triton X-100 in PBS and lysed by shearing with a 25 gauge needle. Cell lysate was centrifuged (10 min at 14,000 rpm, 4° C.) and lactate was measured in the supernatant. Intracellular and extracellular lactate was measured using the Lactate Assay Kit (BioVision, Catalog # K607-100).

For series [3], the system named is H6PD, PGD, TKT, ME1 mRNA in HCT-116 cells. In words: mRNA of NADPH synthesis genes in HCT-116. Format: cell-based. Conditions: HCT-116, 10 or 50 nM, 24 h. The method, then:
HCT-116 cells were plated in 6-well dishes at a density of 3×10^5 cells/well. […] Each well received the same amount of vehicle. Following treatment, media was removed and cells were harvested using RLT buffer (Qiagen). Lysates were homogenized using QIAShredder columns (Qiagen, Catalog #79654) and RNA was isolated using RNeasy Mini kits (Qiagen, Catalog #74104). For reverse transcription, RNA (1 μg) was combined with Oligo(dT)12-18 primer and H2O in a final volume of 23.25 μL. The mixture was heated to 70° C. for 10 min and then placed on ice. A master mix containing 8 μL 5×1st strand buffer, 2 μL 1 mg/ml BSA, 2 μL 20 mM DTT, 4 μL 5 mM dNTP mix, 0.25 μL RNaseOUTTM and 0.5 μL […]® II reverse transcriptase was added to the RNA mixture and incubated at 42° C. for 1 h. The reaction was inactivated by heating to 70° C. for 10 min. The reaction mixture was diluted 1:3 with H2O prior to use in qPCR. 2.5 μL of the diluted reverse transcription reaction was combined with one set of PCR primers (0.36 μM final concentration), 2× iQTM SYBR® Green Supermix (Bio-Rad, Catalog #170-8885) and H2O to a final volume of 20 pt. Sequences for PCR primers are as follows: Ribosomal protein S9 (RPS9) forward primer [NT] ID NO: 7), reverse primer [NT] ID NO: 8); […] […] The relative abundance of each target gene was determined using the comparative CT method (ΔΔCT). […]

Series [4] relates to LNCaP prostate cancer cell line. The series can be described thus: Cytotoxicity in combination with 5-fluorouracil in LNCaP. Conditions: RTA 408 0.125 to 0.5 μM. It is filed as cell-based. An excerpt: This evidence supports the concept that RTA 408 could act synergistically with cancer therapeutic agents and may be used in some embodiments to provide greater efficacy in treating cancer patients.

For series [5], the system named is NQO1 and HMOX1 protein in BV2 cells. In words: Western blot of Nrf2 target proteins in BV2. The note with it: BV2, 24 h. Format: cell-based, mouse. The method, then: SH-SY5Y cells were plated in 6-well plates at a density of 4×10^5 cells per well. BV-2 cells were plated in 6-well plates at a density of 2.5×10^4 cells per well. […] Following treatment, cells were washed twice with cold PBS and harvested in lysis buffer. Cells were sonicated and debris was cleared by centrifugation (10 min @ 18,000 rcf, Beckman Coulter, microfuge 18 centrifuge). Total protein in supernatant was quantified using Bio-Rad protein reagent with BSA as a standard. Equal amounts of total cellular protein were separated on SDS-PAGE, and proteins were transferred to nitrocellulose membrane. Membranes were blocked for 1 hour in TBST (1×TBS with 0.1% Tween-20) containing 5% milk, washed 3 times with TBST, and incubated with primary antibodies overnight at 4° C. NQO1 antibody was from Abcam (#AB2346); HMOX1 (HO-1) antibody was from Santa Cruz (#sc-10789); actin antibody was from Millipore (#MAB 1501). After washing with TBST, secondary antibodies were added in TBST+5% milk for 1 h at room temperature. AffiniPure goat anti-rabbit or anti-mouse IgG secondary antibodies were from Jackson ImmunoResearch (catalog #111-035-144 and #115-035-146, respectively). Membranes were washed in TBST, developed using ECL, and exposed to X-ray film. […] HMOX1 protein was not detected in untreated or RTA 408-treated SH-SY5Y cells. […] The same amount of 63170 (54.6 nM) was required.
On the technique in general: Immunoblotting shows a protein as a band on a membrane.

Series [6] in a line: Plasma protein binding (ultracentrifugation), monkey.
The next series deals with pulmonary function. In words: Pulmonary evaluation in rats. It is filed as in vivo, rat. The note with it: single oral dose up to and including 30 mg/kg. As to the method: One additional group of 8 animals/sex served as the control and received vehicle (sesame oil).
Observations for mortality, morbidity, injury, and availability of food and water were conducted twice daily for all animals. Clinical observations were conducted prior to dosing, approximately 4 h post-dose, and following completion of the 8-h pulmonary monitoring period. […] Pulmonary function (respiratory rate, tidal volume, and minute volume) was monitored for at least 1 h prior to dosing to establish a baseline and for at least 8 h post-dose.

A further series relates to LPS-induced sepsis. Conditions: mouse, in vivo.
Series [7] can be described thus: Metabolism in rodent (mouse, rat) liver microsomes. Format: in vitro ADME, mice, rats. Conditions: 60-min incubation, NADPH and UGT. For orientation: Microsomes from liver hold many membrane-bound enzymes, among them those of drug oxidation.

As a reminder, the fraction unbound is free concentration divided by total concentration.

Values joined by “and” are separate entries in the source; they are usually repeats but may differ in a detail not shown here. Identical values can stand only once.

Turning to `CC1(C)CC[C@]2(NC(=O)C(C)(F)F)CC[C@]3(C)[C@H](C(=O)C=C4[C@@]5(C)C=C(C#N)C(=O)C(C)(C)[C@@H]5CC[C@]43C)[C@@H]2C1` [RTA 408, N-((4aS,6aR,6bS,8aR,12aS,14aR,14bS)-11-cyano-2,2,6a,6b,9,9,12a-heptamethyl-10,14-dioxo-1,2,3,4,4a,5,6,6a,6b,7,8,8a,9,10,12a,14,14a,14b-octadecahydropicen-4a-yl)-2,2-difluoropropanamide], the “Induction of luciferase activity, GSTA2-ARE reporter” value in [1] was roughly 2 fold. Besides, the “Intracellular and extracellular lactate levels” value in series [2] was “significantly increased intracellular and extracellular lactate levels in a dose-dependent manner”. Further, the “Expression of genes involved in NADPH synthesis” value in series [3] is “dose-dependent increase in expression of genes involved in NADPH synthesis”. Also, the “Cytotoxicity of 5-fluorouracil in combination” value in series [4] was “statistically significant increase in cytotoxicity when combined with RTA 408”. Further, the “NQO1 and HMOX1 protein levels” value in series [5] is “increased NQO1 and HMOX1 protein levels at concentrations up to 125 nM”. The molecule further showed a fraction unbound in series [6] of 0.05. Further, the “Pulmonary endpoints (respiratory rate, tidal volume, minute volume)” value in the series with pulmonary function is “did not produce any adverse effects”. For the same molecule, in the series with LPS-induced sepsis, the “Animals surviving until Day 4” value was 80% and 90%; the “Survival, systemic LPS” value was “improved survival”. In series [7], the Parent molecule remaining is greater than 65%.
